Reference: US11359200B2, “Cancer treatment by MALAT1 inhibition” (THE CLEVELAND CLINIC FOUNDATION, priority 2017, dated 2022)
d = 2'-deoxy (DNA); m = 2'-O-methyl

What was measured:
[1] = test system: γH2A.X; test: Immunofluorescence staining and western blot for γH2A.X after MALAT1 knock-down; format: cell-based, Human; settings: H929, MM.1S and RPMI8226 cells, 48 h after transfection
Experimental: Protein was extracted from cells using RIPA buffer (Thermo Fisher Scientific) containing protease inhibitor cocktail (Roche) and phosphatase inhibitor cocktail (Thermo Fisher Scientific). Protein extracts were boiled in SDS/β-mercaptoethanol sample buffer, and 30 μg samples were loaded into each well on 4%-12% polyacrylamide gels (Thermo Fisher Scientific). The proteins were separated by electrophoresis, and the proteins in the gels were blotted onto PVDF membranes (Thermo Fisher Scientific) by electrophoretic transfer. […] The specific protein—antibody complex was detected with horseradish peroxidase-conjugated rabbit anti-mouse IgG. […]

[2] = test system: MALAT1; test: MALAT1 knock-down in MM cells by qRT-PCR; format: cell-based, Human; settings: H929, MM.1S and RPMI8226 cells, 48 h after transfection
Experimental: (§1) For anti-MALAT1 transfection and ABT-888 (Santa Cruz Biotechnology Inc) or bortezomib (MilliporeSigma) treatment, MM cells were seeded on 12-well plates at a concentration of 5×10^5 cells/mL. The cells were transfected using Lipofectamine 2000 (Thermo Fisher Scientific) with 1 nM control or anti-MALAT1 oligos for 24 hours and then treated with a gradient concentration of ABT-888 or bortezomib for another 24 hours. Cells were subjected to proliferation and apoptosis assays, qRT-PCR, and immunoblotting.
Quantitative RT-PCR (qRT-PCR) analysis was used to determine the relative expression level of MALAT1. Total RNA was extracted from cells or tissues using Trizol Reagent (Thermo Fisher Scientific) according to the manufacturer's instructions. After Turbo DNase (Thermo Fisher Scientific) treatment, 500 ng total RNA was subjected to reverse transcription using the RevertAid first-stand cDNA synthesis kit (Thermo Fisher Scientific). Quantitative PCR using SYBR Green PCR master mix (Thermo Fisher Scientific) was employed to determine MALAT1 level with PCR cycle conditions of 95° C. 10 min, 95° C. 15 s, and 60° C. 1 min, for 40 cycles. GAPDH was used as loading control.

[3] = target: T1, PARP1 (Homo sapiens, UniProt P09874); test: Immunoblotting after anti-MALAT1 and ABT-888 treatment; format: cell-based
T1 construct: Protein was extracted from cells using RIPA buffer; endogenous in cells; host or cells: H929, MM.1S (human multiple myeloma cell lines, ATCC)
Experimental: (§2) Cells were subjected to proliferation and apoptosis assays, qRT-PCR, and immunoblotting.
(§3) Protein was extracted from cells using RIPA buffer (Thermo Fisher Scientific) containing protease inhibitor cocktail (Roche) and phosphatase inhibitor cocktail (Thermo Fisher Scientific). Protein extracts were boiled in SDS/β-mercaptoethanol sample buffer, and 30 μg samples were loaded into each well on 4%-12% polyacrylamide gels (Thermo Fisher Scientific). The proteins were separated by electrophoresis, and the proteins in the gels were blotted onto PVDF membranes (Thermo Fisher Scientific) by electrophoretic transfer. […] The specific protein—antibody complex was detected with horseradish peroxidase-conjugated rabbit anti-mouse IgG. Detection by chemiluminescence reaction was carried using the SuperSignal West Femto Maximum Sensitivity Substrate kit (Thermo Fisher Scientific). β-actin was used as a loading control.

[4] = test system: RPMI8226/V10R cells; test: Cell viability assay, bortezomib-resistant cells; format: cell-based; settings: Homo sapiens, RPMI-8226, 72 h
Experimental: (§4) For the drug resistant cells, RPMI8226/DOX40, RPMI8226/LR5 and RPMI8226/V10R cells were transfected with 1 nM control or anti-MALAT1 oligos separately for 24 hours and treated with a gradient concentration of doxorubicin for RPMI8226/DOX40, or melphalan for RPMI8226/LR5, or bortezomib for RPMI8226/V10R for 72 hours. Cell were subjected to qRT-PCR, proliferation and apoptosis assays.
(§5) MM cell lines (MM.1S, H929 and RPMI8226) and drug resistant MM cell lines (RPMI8226/LR5, RPMI8226/DOX40 and RPMI8226/V10R) were treated with anti-MALAT1 oligos for 24 hours. 2×10^4 cells/well were seeded in a 96-well plate with 100 μL medium containing gradient concentration of bortezomib, melphalan or doxorubicin per well. After 72 hours culture, cells were subjected to cell viability assay using CellTilter 96® Aqueous One Solution Cell Proliferation Assay (Promega Corporation), according to the manufacturer's instructions. The half maximal inhibitory concentration (IC50) was calculated by Graphpad Prism V5.0.

[5] = test system: H929 cells; test: Cell viability assay, bortezomib with or without MALAT1 knockdown; format: cell-based; settings: Homo sapiens
Experimental: as §1, §5

[6] = test system: MM.1S cells; test: as above; format: cell-based; settings: Homo sapiens, MM1.S
Experimental: as §1, §5

[7] = test system: RPMI8226 cells; test: as above; format: cell-based; settings: Homo sapiens, RPMI-8226, third cell line (RPMI8226, FIG. 6C)
Experimental: as §1, §5

[8] = test system: BRCA1 and BRCA2; test: Immunoblotting of BRCA1 and BRCA2 after bortezomib treatment; format: cell-based, Human; settings: H929, MM.1S and RPMI8226, high-dose bortezomib
Experimental: as §2, §3

[9] = test system: H929, MM.1S and RPMI8226 cells; test: MM cell apoptosis assay (annexin V/PI flow cytometry); format: cell-based, Human; settings: high-/low-dose bortezomib treatment
Experimental: as §1
After transfection of cells with anti-MALAT1 #1 or #2 and control, apoptosis was evaluated by assaying for annexin V. Cells were stained with APC Annexin V Apoptosis Detection Kit with PI (BioLegend), according to the manufacturer's instructions. Stained cells were analyzed using flow cytometry, and data were analyzed using Flowjo software (Ashland).

[10] = test system: RPMI8226/DOX40 cells; test: Cell viability assay, doxorubicin-resistant cells; format: cell-based; settings: Homo sapiens, RPMI-8226, 72 h
Experimental: as §4, §5

[11] = test system: RPMI8226/LR5 cells; test: Cell viability assay, melphalan-resistant cells; format: cell-based; settings: Homo sapiens, RPMI-8226, 72 h
Experimental: as §4, §5

[12] = transfected with 1 nM anti-MALAT1, 72 hours

T1 sequence (P09874 whole entry): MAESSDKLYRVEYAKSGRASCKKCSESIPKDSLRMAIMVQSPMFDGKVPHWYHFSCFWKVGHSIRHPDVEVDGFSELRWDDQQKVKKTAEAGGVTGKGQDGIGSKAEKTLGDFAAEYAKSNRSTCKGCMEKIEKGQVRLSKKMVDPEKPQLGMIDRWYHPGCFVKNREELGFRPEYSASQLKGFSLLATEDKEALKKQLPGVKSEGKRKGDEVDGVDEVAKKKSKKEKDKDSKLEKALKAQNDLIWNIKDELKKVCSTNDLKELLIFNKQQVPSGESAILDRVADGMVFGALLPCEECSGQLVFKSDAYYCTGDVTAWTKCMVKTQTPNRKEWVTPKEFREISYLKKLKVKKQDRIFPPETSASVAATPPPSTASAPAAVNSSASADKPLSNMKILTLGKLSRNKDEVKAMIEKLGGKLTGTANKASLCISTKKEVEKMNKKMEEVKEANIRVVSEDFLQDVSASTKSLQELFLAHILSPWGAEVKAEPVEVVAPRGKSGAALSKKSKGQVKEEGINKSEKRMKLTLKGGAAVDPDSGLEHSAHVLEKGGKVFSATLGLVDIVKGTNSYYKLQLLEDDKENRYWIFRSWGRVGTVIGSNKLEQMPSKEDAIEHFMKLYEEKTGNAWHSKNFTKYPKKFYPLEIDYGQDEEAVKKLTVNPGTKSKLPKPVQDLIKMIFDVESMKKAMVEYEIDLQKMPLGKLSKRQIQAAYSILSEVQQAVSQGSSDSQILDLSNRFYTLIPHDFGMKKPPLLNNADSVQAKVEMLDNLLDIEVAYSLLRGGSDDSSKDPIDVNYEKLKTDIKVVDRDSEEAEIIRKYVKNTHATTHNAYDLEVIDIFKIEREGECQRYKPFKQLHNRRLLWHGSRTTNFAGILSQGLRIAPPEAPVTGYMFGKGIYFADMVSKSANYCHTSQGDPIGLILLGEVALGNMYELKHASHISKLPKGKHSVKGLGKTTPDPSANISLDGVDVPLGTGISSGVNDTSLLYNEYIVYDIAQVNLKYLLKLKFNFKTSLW

In the case of “5′-mC*mG*mA*mA*mA*C*A*T*T*G*G*C*A*C*A*mC*mA*mG*mC*mA-3′ (antisense CGAAACATTGGCACACAGCA; sugars from the 5' end m5 d10 m5, all phosphorothioate, methylation of C not given here) [anti-MALAT1-1]”, the “frequency of DNA break (γH2A.X)” value [1] is reported as “increased substantially” and the “MALAT1 level (qRT-PCR)” value [2] is reported as “efficiently knocked-down”.
With “5′-mG*mG*mC*mA*mU*A*T*G*C*A*G*A*T*A*A*mU*mG*mU*mU*mC-3′ (antisense GGCAUATGCAGATAAUGUUC; sugars from the 5' end m5 d10 m5, all phosphorothioate, methylation of C not given here) [anti-MALAT1-2]” the “frequency of DNA break (γH2A.X)” value [1] was “increased substantially” and the “MALAT1 level (qRT-PCR)” value [2] was “efficiently knocked-down”.
`C[C@]1(c2nc3c(C(N)=O)cccc3[nH]2)CCCN1` [ABT888] was tested, and the PAR signal ([3]; H929 and MM.1S, treated synchronously with anti-MALAT1 and ABT888) was “dose-dependent decreased” and the “level of γH2A.X, cleaved PARP1, and cleaved caspase-3” value ([3]; combination treatment anti-MALAT1 and ABT888) was “significantly increased”.
For `CC(C)C[C@H](NC(=O)[C@H](Cc1ccccc1)NC(=O)c1cnccn1)B(O)O` [bortezomib], the IC50 ([4]; control oligos, 72 hours) was 194 nM, the IC50 [4, 12] was 144 nM and the IC50 ([5]; NCI-H929, H929 cells transfected with 1 nM anti-MALAT1) was 3.6 nM. The IC50 ([5]; NCI-H929, H929 cells, control (before MALAT1 knockdown)) was 4.9 nM, the IC50 ([6]; MM.1S cells transfected with 1 nM anti-MALAT1) was 6.6 nM and the IC50 ([6]; MM.1S cells, control (before MALAT1 knockdown)) was 8.9 nM. For the same compound, the IC50 ([7]; control) was 10.1 nM, the IC50 ([7]; transfected with 1 nM anti-MALAT1) was 8.2 nM and the “expression of BRCA1 and BRCA2” value [8] was “dramatically down-regulated”. For the same compound, the “γH2A.X signals and apoptosis ratio” value [9] was “increased”.
`COc1cccc2c1C(=O)c1c(O)c3c(c(O)c1C2=O)C[C@@](O)(C(=O)CO)C[C@@H]3O[C@H]1C[C@H](N)[C@H](O)[C@H](C)O1` [doxorubicin] showed an IC50 ([10]; control oligos, 72 hours) of 2460 nM and an IC50 [10, 12] of 1480 nM.
Compound `N[C@@H](Cc1ccc(N(CCCl)CCCl)cc1)C(=O)O` [melphalan] has an IC50 ([11]; control oligos, 72 hours) of 53400 nM and an IC50 [11, 12] of 34000 nM.
